Experimental data as given in US7795290B2 (Genentech, Inc., priority 2004, dated 2010).

Each compound was assayed against T1, AKT1 (Homo sapiens, UniProt P31749) (assay: HTS ATP-utilizing enzyme assay, off-chip mobility-shift (Caliper HTS 250)). Conditions: kinase named = inhibitory activity/selectivity; test compound 10 μM; active = greater than three-sigma from mean.
T1 construct: purchased Upstate 14-276
Assay type: biochemical
Source text: The following procedures describe the reagent and plate preparation for a HTS of an ATP-utilizing enzyme, such as a protein kinase, run in an off-chip mobility-shift assay format. The following provides an HTS protocol for running a protein kinase HTS screen on a Caliper HTS 250 microfluidics system. The following parameters are dependent on the protein kinase used and can be determined by one skilled in the art as part of a typical assay development process. For example, the peptide substrate used can be identified from the current literature, by screening a peptide library of potential protein kinase substrates, or by other applicable means accepted in the field.
The following table provides typical screen assay parameters appropriate for a Caliper HTS 250 microfluidics system used to assay AKT1. Parameters used to assay other protein kinases can be determined by one skilled in the art.
Assays to determine the kinase inhibitory activity of chemical entities of the present disclosure were performed using a Caliper HTS 250 microfluidics device, Greiner U-bottom assay plates, a Multidrop for transfer of reagents, and Biomek FX (AMNCBM03) software. Initially, 2.4 μL of a 1 mM solution of a test compound in 100% DMSO was added to a well of the Greiner U-bottom plate. A single Greiner U-bottom plate having 24×16 wells could include multiple test compounds. […] Using the Biomek FX, 10 μL of 0.5 M EDTA was added by the span-8 to wells, indicated as 100% Control and 2.4 μL of 100% DMSO was added by the span-8 to wells, indicated as 0% Control. […] The total reaction volume in each well was 25 μL, and the concentration of the test compound was 10 μM. The assay plate was incubated for 2.5 hrs at 20° C. to 22° C. […] The inhibition of the ATP-utilizing enzyme, such as a particular protein kinase, was determined by measuring the ratio of the peptide substrate to phosphorylated product for each well of the assay plate using the Caliper HTS 250 system.
The use of three-sigma statistical limits represents a conservative method for declaring potential hits among targets. The three-sigma activity, as well as the mean population activity, can be different for each target enzyme.
Each chemical entity listed in Table 2 was tested for protein kinase inhibitory activity according to the biological assays and definitions of protein kinase inhibitory activity as described herein.

T1 sequence (P31749 whole entry): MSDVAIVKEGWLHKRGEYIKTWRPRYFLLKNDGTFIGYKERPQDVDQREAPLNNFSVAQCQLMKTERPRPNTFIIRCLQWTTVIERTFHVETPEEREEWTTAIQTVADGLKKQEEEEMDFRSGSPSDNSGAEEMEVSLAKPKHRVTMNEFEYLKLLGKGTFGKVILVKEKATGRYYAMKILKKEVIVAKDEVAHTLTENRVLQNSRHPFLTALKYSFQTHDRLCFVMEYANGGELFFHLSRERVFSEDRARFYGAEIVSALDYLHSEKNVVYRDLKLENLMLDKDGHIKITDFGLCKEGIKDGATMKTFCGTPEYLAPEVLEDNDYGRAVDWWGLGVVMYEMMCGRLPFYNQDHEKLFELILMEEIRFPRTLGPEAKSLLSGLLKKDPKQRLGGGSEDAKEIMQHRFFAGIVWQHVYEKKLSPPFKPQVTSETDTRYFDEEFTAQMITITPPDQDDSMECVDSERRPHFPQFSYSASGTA

Activity	Compound
AKT1	COc1ccc(-c2csc(N(CCCN3CCOCC3)C(=O)c3cccc(F)c3)n2)cc1 [3-fluoro-N-(4-(4-methoxyphenyl)thiazol-2-yl)-N-(3-morpholinopropyl)benzamide]
AKT1	Cc1cccc(C(=O)N(CCCN2CCOCC2)c2nc(-c3ccccc3)cs2)c1 [3-methyl-N-(3-morpholinopropyl)-N-(4-phenylthiazol-2-yl)benzamide]
AKT1	COc1ccc(-c2csc(N(CCCN3CCOCC3)C(=O)c3ccc(Cl)cc3)n2)cc1 [4-chloro-N-(4-(4-methoxyphenyl)thiazol-2-yl)-N-(3-morpholinopropyl)benzamide]
AKT1	O=C(c1ccc(F)cc1)N(CCCN1CCOCC1)c1nc(-c2ccccc2)cs1 [4-fluoro-N-(3-morpholinopropyl)-N-(4-phenylthiazol-2-yl)benzamide]
AKT1	COc1ccc(-c2csc(N(CCCN3CCOCC3)C(=O)c3ccc(Cl)s3)n2)cc1 [5-chloro-N-(4-(4-methoxyphenyl)thiazol-2-yl)-N-(3-morpholinopropyl)thiophene-2-carboxamide]
AKT1	CNC(=O)[C@H]1CCCN1CCCN(C(=O)c1cccs1)c1nc(-c2cc3ccccc3o2)cs1 [(R)-1-(3-(N-(4-(benzofuran-2-yl)thiazol-2-yl)thiophene-2-carboxamido)propyl)-N-methylpyrrolidine-2-carboxamide]
AKT1	CC(C)(C)OC(=O)[C@@H]1CCCN1CCCN(C(=O)c1cccs1)c1nc(-c2cc3ccccc3o2)cs1 [(S)-tert-butyl 1-(3-(N-(4-(benzofuran-2-yl)thiazol-2-yl)thiophene-2-carboxamido)propyl)pyrrolidine-2-carboxylate]
AKT1	O=C(c1cccs1)N(CCCN1CCC[C@H]1CO)c1nc(-c2cc3ccccc3o2)cs1 [(S)—N-(4-(benzofuran-2-yl)thiazol-2-yl)-N-(3-(2-(hydroxymethyl)pyrrolidin-1-yl)propyl)thiophene-2-carboxamide]
AKT1	O=C(Nc1ccc2c(c1)OCCO2)c1csc(N(CCCN2CCOCC2)C(=O)c2cccs2)n1 [N-(2,3-dihydrobenzo[b][1,4]dioxin-6-yl)-2-(N-(3-morpholinopropyl)thiophene-2-carboxamido)thiazole-4-carboxamide]
AKT1	O=C(c1cccs1)N(CCCn1ccnc1)c1nc(-c2cc3ccccc3o2)cs1 [N-(3-(1H-imidazol-1-yl)propyl)-N-(4-(benzofuran-2-yl)thiazol-2-yl)thiophene-2-carboxamide]
AKT1	O=C1CCCN1CCCN(C(=O)c1cccs1)c1nc(-c2cc(-c3ccccc3)no2)cs1 [N-(3-(2-oxopyrrolidin-1-yl)propyl)-N-(4-(3-phenylisoxazol-5-yl)thiazol-2-yl)thiophene-2-carboxamide]
AKT1	CC(=O)NC1CCN(CCCN(C(=O)c2cccs2)c2nc(-c3cc4ccccc4o3)cs2)C1 (centres unmarked) [N-(3-(3-acetamidopyrrolidin-1-yl)propyl)-N-(4-(benzofuran-2-yl)thiazol-2-yl)thiophene-2-carboxamide]
AKT1	CC(=O)NCCCC(=O)NCCCN(C(=O)c1cccs1)c1nc(-c2cc3ccccc3o2)cs1 [N-(3-(4-acetamidobutanamido)propyl)-N-(4-(benzofuran-2-yl)thiazol-2-yl)thiophene-2-carboxamide]
AKT1	CN1CCN(CCCN(C(=O)c2ccco2)c2nc(-c3cc(-c4ccccc4)no3)cs2)CC1 [N-(3-(4-methylpiperazin-1-yl)propyl)-N-(4-(3-phenylisoxazol-5-yl)thiazol-2-yl)furan-2-carboxamide]
AKT1	CN1CCN(CCCN(C(=O)c2ccco2)c2nc(-c3ccccc3)cs2)CC1 [N-(3-(4-methylpiperazin-1-yl)propyl)-N-(4-phenylthiazol-2-yl)furan-2-carboxamidevv]

Second part, the compound before the results:

Compound	Activity
O=C(O)CCOc1cccc(-c2csc(N(CCCN3CCOCC3)C(=O)c3cccs3)n2)c1 [3-(3-(2-(N-(3-morpholinopropyl)thiophene-2-carboxamido)thiazol-4-yl)phenoxy)propanoic acid]	AKT1
O=C(O)CCOc1ccc(-c2csc(N(CCCN3CCOCC3)C(=O)c3cccs3)n2)cc1 [3-(4-(2-(N-(3-morpholinopropyl)thiophene-2-carboxamido)thiazol-4-yl)phenoxy)propanoic acid]	AKT1
O=C(O)c1ccc(-c2csc(N(CCCN3CCOCC3)C(=O)c3cccs3)n2)cc1 [4-(2-(N-(3-morpholinopropyl)thiophene-2-carboxamido)thiazol-4-yl)benzoic acid]	AKT1
COc1ccc(-c2csc(N(CCCN3CCOCC3)C(=O)c3cc(Cl)ccn3)n2)cc1 [4-chloro-N-(4-(4-methoxyphenyl)thiazol-2-yl)-N-(3-morpholinopropyl)picolinamide]	AKT1
COc1ccc(-c2csc(N(CCCN3CCOCC3)C(=O)c3ccc(F)cc3)n2)cc1 [4-fluoro-N-(4-(4-methoxyphenyl)thiazol-2-yl)-N-(3-morpholinopropyl)benzamide]	AKT1
Cc1ccc(C(=O)N(CCCN2CCOCC2)c2nc(-c3ccccc3)cs2)cc1 [4-methyl-N-(3-morpholinopropyl)-N-(4-phenylthiazol-2-yl)benzamide]	AKT1
O=C(O)[C@H]1CCCN1CCCN(C(=O)c1cccs1)c1nc(-c2cc3ccccc3o2)cs1 [(R)-1-(3-(N-(4-(benzofuran-2-yl)thiazol-2-yl)thiophene-2-carboxamido)propyl)pyrrolidine-2-carboxylic acid]	AKT1
CN(C)C(=O)[C@@H]1CCCN1CCCN(C(=O)c1cccs1)c1nc(-c2cc3ccccc3o2)cs1 [(S)-1-(3-(N-(4-(benzofuran-2-yl)thiazol-2-yl)thiophene-2-carboxamido)propyl)-N,N-dimethylpyrrolidine-2-carboxamide]	AKT1
COC[C@@H]1CCCN1CCCN(C(=O)c1cccs1)c1nc(-c2cc3ccccc3o2)cs1 [(S)—N-(4-(benzofuran-2-yl)thiazol-2-yl)-N-(3-(2-(methoxymethyl)pyrrolidin-1-yl)propyl)thiophene-2-carboxamide]	AKT1
O=C(c1cccs1)N(CCCC(=O)N1c2ccccc2C[C@H]1CO)c1nc(-c2cc3ccccc3o2)cs1 [(S)—N-(4-(benzofuran-2-yl)thiazol-2-yl)-N-(4-(2-(hydroxymethyl)indolin-1-yl)-4-oxobutyl)thiophene-2-carboxamide]	AKT1
O=C1CCCN1CCCN(C(=O)c1ccco1)c1nc(-c2cc(-c3ccccc3)no2)cs1 [N-(3-(2-oxopyrrolidin-1-yl)propyl)-N-(4-(3-phenylisoxazol-5-yl)thiazol-2-yl)furan-2-carboxamide]	AKT1
CC(=O)NC1CCN(C(=O)CCN(C(=O)c2cccs2)c2nc(-c3cc4ccccc4o3)cs2)C1 (centres unmarked) [N-(3-(3-acetamidopyrrolidin-1-yl)-3-oxopropyl)-N-(4-(benzofuran-2-yl)thiazol-2-yl)thiophene-2-carboxamide]	AKT1
CC(=O)N1CCN(CCCN(C(=O)c2cccs2)c2nc(-c3cc4ccccc4o3)cs2)CC1 [N-(3-(4-acetylpiperazin-1-yl)propyl)-N-(4-(benzofuran-2-yl)thiazol-2-yl)thiophene-2-carboxamide]	AKT1
CN1CCN(CCCN(C(=O)c2ccccc2)c2nc(-c3ccccc3)cs2)CC1 [N-(3-(4-methylpiperazin-1-yl)propyl)-N-(4-phenylthiazol-2-yl)benzamide]	AKT1
